ChEMBL document CHEMBL1201862, “PubChem BioAssay data set” (2004)
Activity calls are given as the source filed them.

What was measured:
[1] = molecular target: T1, Short transient receptor potential channel 4 (Mus musculus, UniProt Q9QUQ5); experiment: potentiation of DAMGO-evoked TRPC4 calcium signal – cell-based, HEK293 TRPC4/mu-opioid, Fluo-4 calcium, EC20 DAMGO, dose response (AID 434941); type: functional
T1 sequence (Q9QUQ5 whole entry): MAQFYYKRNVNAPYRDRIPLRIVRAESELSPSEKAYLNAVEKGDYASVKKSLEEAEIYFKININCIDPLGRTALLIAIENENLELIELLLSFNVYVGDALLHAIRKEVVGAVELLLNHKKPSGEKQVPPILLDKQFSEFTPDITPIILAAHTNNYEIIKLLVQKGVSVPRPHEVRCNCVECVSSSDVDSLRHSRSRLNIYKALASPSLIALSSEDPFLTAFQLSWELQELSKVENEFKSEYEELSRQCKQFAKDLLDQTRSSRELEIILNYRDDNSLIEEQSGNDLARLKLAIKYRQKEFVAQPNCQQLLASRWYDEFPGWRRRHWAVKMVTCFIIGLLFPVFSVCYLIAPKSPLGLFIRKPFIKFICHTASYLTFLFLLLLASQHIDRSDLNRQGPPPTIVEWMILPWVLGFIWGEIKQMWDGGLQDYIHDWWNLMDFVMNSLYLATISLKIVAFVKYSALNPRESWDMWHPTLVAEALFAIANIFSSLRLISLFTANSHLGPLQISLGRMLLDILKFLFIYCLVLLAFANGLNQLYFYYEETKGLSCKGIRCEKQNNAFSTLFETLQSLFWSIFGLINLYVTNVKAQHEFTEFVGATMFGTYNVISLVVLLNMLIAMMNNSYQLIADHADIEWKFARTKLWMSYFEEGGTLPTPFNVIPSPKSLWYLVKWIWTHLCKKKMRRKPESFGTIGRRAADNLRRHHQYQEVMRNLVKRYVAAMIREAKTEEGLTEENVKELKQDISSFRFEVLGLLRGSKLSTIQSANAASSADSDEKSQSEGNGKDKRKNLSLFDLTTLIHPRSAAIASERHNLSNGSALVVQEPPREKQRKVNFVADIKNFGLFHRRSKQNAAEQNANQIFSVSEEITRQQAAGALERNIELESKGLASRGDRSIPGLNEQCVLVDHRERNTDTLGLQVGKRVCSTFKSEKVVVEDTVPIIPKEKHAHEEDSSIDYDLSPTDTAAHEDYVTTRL

ORF 73 = ORF 73 (Human herpesvirus 8, UniProt O40947); experiment: KSHV LANA DNA-binding disruption – biochemical, fluorescence polarization, cherry-picked samples, dose response (AID 504725); parameters: species or system Human gammaherpesvirus 8;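 further: fluorescence polarization of a labeled DNA duplex reporting LANA DNA binding; potency is for inhibitors that block LANA binding to the DNA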
Sequence of ORF 73 (O40947 whole entry): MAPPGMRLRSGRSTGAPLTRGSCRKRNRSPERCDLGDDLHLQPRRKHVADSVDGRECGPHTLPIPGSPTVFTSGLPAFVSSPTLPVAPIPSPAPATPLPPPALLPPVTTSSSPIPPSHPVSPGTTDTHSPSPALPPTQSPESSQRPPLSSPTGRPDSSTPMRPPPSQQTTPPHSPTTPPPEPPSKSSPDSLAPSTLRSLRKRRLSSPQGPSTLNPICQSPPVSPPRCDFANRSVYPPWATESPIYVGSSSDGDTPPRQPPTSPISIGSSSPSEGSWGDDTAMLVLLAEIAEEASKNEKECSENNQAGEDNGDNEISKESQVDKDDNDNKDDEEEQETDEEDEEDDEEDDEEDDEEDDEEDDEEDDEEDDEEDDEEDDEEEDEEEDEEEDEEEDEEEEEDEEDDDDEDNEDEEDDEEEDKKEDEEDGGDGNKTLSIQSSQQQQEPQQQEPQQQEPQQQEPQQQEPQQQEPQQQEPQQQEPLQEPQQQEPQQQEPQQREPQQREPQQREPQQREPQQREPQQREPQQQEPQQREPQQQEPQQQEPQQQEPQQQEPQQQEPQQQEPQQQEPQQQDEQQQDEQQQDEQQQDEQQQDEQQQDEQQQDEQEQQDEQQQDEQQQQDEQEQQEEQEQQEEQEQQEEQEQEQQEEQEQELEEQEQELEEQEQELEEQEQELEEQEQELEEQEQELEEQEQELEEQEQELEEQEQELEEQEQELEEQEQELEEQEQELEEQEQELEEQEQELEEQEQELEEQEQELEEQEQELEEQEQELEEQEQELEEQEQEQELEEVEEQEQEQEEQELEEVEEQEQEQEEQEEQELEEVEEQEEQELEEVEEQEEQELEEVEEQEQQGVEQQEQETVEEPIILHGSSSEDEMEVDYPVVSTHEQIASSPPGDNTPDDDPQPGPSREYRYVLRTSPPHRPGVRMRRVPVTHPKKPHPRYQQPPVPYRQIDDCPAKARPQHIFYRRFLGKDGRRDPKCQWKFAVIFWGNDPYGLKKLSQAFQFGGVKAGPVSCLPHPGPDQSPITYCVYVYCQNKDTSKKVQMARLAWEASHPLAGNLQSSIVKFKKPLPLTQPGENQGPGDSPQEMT

[2] = molecular target: T2, Zinc finger protein mex-5 (Caenorhabditis elegans, UniProt Q9XUB2); experiment: potency of MEX-5 RNA-binding blockers – biochemical, C. elegans, fluorescence polarization, dose response (AID 1960)
T2 sequence (Q9XUB2 whole entry): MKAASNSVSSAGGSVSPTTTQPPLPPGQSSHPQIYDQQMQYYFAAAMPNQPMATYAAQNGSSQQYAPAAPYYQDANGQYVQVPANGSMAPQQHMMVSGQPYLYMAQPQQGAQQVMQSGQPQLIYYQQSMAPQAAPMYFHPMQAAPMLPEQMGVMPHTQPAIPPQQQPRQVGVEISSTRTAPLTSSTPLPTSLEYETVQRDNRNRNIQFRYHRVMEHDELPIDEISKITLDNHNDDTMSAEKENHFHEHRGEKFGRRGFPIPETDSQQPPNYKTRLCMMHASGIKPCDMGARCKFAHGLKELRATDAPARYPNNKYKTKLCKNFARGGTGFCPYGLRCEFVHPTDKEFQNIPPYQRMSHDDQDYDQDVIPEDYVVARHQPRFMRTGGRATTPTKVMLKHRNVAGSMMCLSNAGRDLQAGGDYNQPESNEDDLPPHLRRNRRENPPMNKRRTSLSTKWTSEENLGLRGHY

[3] = molecular target: T3, RNA-binding protein pos-1 (Caenorhabditis elegans, UniProt G5EF15); experiment: disruptors of C. elegans POS-1 RNA interaction – biochemical, fluorescence polarization, dose response (AID 1964);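 further: purified POS-1 fused to maltose binding protein made in E. coli; potency of compounds blocking POS-1 binding to fluorescent RNA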
T3 sequence (G5EF15 whole entry): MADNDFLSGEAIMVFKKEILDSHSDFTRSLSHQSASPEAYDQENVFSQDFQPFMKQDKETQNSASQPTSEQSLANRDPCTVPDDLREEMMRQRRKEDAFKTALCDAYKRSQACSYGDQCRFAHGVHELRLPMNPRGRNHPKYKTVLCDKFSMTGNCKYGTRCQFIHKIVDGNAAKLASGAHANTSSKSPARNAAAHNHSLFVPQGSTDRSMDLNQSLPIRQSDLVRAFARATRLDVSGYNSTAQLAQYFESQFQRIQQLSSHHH

[4] = molecular target: T4, Corticotropin-releasing factor receptor 2/Corticotropin-releasing factor-binding protein (Homo sapiens, UniProt P24387+Q13324); experiment: activators of CRF receptor 2 with binding protein – uHTS hits, confirmation (AID 602473); type: functional; conditions: read-out: EC50_Mean
T4 sequence (Q13324 whole entry): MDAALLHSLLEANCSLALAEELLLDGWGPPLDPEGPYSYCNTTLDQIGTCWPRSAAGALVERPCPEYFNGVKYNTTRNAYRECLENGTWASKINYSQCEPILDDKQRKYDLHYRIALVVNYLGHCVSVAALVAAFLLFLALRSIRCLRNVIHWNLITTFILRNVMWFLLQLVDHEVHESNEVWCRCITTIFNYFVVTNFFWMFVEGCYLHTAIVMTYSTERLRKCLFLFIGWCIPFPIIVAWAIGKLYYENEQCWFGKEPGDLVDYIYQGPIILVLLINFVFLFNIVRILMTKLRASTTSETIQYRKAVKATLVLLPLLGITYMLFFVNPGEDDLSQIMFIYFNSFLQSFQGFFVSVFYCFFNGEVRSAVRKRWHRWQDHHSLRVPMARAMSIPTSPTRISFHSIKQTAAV
T4 sequence (P24387 whole entry): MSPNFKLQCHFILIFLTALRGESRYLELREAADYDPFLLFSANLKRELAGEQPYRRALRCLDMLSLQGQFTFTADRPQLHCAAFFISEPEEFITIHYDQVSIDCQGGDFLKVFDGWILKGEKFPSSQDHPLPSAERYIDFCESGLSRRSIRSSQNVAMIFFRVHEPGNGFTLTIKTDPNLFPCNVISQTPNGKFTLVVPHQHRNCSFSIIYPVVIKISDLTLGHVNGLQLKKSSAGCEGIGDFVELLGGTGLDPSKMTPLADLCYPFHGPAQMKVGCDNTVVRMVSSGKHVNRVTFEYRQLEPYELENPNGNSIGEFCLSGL

Hexokinase HKDC1 = molecular target: T5, Hexokinase HKDC1 (Homo sapiens, UniProt Q2TB90); experiment: activation of HKDC1 glucose phosphorylation – biochemical, W721R variant, dose response (AID 504730); type: functional
T5 sequence (Q2TB90 whole entry): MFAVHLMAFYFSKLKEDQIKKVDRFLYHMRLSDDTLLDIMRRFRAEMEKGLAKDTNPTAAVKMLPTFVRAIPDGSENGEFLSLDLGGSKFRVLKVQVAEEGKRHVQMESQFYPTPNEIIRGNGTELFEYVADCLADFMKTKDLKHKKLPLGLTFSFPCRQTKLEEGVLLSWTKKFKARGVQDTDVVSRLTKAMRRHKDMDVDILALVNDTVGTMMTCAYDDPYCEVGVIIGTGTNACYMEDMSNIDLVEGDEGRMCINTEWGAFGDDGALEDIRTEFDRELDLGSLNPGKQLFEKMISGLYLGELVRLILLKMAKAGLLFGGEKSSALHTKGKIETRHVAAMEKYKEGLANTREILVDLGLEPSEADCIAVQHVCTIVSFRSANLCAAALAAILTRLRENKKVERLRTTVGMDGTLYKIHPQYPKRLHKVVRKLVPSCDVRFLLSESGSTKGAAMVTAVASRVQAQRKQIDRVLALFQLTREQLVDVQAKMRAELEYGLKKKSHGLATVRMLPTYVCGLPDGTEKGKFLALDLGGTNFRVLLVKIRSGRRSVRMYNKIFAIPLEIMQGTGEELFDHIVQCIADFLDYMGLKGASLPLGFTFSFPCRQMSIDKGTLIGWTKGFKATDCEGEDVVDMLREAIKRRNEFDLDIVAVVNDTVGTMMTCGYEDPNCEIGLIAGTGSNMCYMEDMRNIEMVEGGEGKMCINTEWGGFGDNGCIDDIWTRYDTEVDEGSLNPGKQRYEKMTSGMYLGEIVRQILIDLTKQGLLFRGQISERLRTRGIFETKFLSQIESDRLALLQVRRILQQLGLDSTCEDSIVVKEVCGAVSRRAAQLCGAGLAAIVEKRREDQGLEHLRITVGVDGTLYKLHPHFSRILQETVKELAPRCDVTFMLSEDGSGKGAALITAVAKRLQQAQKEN

Troponin, cardiac muscle = Troponin, cardiac muscle (Homo sapiens, UniProt P19429+P45379+P63316); experiment: Fluorescence-based biochemical high throughput dose response assay for activators of the calcium sensitivity of cardiac Regulated Thin Filaments (RTF). [Related pubchem assays (depositor defined):AID493008, AID493018, AID504382, AID504383]; type: protein-complex assay
[5] = molecular target: T6, Calpain-2 catalytic subunit (Sus scrofa, UniProt P43367); experiment: m-calpain protease blockers, concentration series – biochemical, fluorogenic peptide substrate, dose response (AID 1420); type: functional
T6 sequence (P43367 whole entry): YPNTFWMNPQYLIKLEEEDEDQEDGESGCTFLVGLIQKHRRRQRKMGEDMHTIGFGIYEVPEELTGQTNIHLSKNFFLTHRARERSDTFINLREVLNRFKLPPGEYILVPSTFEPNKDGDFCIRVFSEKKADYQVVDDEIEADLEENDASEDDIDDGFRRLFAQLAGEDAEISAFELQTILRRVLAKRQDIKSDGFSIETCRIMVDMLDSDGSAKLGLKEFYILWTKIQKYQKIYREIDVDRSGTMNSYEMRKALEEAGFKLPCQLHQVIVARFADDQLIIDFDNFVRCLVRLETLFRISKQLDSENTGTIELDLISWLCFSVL

Aminopeptidase N = molecular target: T7, Aminopeptidase N (Plasmodium falciparum FcB1/Columbia, UniProt O96935); experiment: malaria alanyl aminopeptidase activity blockers – biochemical, fluorogenic H-Leu-NHMec substrate, 1536-well (AID 1445); parameters: species or system Plasmodium falciparum 3D7, 3D7
T7 sequence (O96935 whole entry): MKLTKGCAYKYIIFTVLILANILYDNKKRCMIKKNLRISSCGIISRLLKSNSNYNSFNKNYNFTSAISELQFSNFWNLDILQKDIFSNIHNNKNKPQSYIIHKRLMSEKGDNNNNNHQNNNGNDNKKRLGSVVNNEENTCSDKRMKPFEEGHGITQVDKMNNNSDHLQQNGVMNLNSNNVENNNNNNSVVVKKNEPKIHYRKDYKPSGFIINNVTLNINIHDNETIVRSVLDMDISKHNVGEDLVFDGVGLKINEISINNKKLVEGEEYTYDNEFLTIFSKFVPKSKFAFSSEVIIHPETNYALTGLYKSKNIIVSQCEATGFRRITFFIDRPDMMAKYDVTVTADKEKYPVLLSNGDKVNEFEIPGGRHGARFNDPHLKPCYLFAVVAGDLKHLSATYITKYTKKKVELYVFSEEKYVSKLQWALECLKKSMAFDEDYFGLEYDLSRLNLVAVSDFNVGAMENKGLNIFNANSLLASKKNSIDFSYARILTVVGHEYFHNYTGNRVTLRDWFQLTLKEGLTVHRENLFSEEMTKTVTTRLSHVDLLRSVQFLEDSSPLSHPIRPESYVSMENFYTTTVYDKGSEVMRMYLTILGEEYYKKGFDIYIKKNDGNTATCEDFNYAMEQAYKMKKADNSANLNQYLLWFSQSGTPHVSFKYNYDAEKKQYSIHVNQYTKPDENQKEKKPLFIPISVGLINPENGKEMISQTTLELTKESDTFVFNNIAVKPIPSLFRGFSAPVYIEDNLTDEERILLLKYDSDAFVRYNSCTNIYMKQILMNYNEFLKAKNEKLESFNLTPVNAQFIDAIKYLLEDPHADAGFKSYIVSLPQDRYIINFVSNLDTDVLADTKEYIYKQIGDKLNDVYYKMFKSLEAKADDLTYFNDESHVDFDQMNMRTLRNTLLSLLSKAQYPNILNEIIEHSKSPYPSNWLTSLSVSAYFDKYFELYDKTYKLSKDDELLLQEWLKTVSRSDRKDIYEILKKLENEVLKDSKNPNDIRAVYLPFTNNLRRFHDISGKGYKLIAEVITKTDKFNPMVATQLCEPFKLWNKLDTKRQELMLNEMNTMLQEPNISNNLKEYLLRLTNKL

[6] = molecular target: Voltage-dependent T-type calcium channel subunit alpha-1H (Homo sapiens, UniProt O95180); experiment: human CACNA1H calcium influx blockade – cell-based, synthetic library set 1, calcium flux (AID 493022); type: functional
Sequence of Voltage-dependent T-type calcium channel subunit alpha-1H (O95180 whole entry): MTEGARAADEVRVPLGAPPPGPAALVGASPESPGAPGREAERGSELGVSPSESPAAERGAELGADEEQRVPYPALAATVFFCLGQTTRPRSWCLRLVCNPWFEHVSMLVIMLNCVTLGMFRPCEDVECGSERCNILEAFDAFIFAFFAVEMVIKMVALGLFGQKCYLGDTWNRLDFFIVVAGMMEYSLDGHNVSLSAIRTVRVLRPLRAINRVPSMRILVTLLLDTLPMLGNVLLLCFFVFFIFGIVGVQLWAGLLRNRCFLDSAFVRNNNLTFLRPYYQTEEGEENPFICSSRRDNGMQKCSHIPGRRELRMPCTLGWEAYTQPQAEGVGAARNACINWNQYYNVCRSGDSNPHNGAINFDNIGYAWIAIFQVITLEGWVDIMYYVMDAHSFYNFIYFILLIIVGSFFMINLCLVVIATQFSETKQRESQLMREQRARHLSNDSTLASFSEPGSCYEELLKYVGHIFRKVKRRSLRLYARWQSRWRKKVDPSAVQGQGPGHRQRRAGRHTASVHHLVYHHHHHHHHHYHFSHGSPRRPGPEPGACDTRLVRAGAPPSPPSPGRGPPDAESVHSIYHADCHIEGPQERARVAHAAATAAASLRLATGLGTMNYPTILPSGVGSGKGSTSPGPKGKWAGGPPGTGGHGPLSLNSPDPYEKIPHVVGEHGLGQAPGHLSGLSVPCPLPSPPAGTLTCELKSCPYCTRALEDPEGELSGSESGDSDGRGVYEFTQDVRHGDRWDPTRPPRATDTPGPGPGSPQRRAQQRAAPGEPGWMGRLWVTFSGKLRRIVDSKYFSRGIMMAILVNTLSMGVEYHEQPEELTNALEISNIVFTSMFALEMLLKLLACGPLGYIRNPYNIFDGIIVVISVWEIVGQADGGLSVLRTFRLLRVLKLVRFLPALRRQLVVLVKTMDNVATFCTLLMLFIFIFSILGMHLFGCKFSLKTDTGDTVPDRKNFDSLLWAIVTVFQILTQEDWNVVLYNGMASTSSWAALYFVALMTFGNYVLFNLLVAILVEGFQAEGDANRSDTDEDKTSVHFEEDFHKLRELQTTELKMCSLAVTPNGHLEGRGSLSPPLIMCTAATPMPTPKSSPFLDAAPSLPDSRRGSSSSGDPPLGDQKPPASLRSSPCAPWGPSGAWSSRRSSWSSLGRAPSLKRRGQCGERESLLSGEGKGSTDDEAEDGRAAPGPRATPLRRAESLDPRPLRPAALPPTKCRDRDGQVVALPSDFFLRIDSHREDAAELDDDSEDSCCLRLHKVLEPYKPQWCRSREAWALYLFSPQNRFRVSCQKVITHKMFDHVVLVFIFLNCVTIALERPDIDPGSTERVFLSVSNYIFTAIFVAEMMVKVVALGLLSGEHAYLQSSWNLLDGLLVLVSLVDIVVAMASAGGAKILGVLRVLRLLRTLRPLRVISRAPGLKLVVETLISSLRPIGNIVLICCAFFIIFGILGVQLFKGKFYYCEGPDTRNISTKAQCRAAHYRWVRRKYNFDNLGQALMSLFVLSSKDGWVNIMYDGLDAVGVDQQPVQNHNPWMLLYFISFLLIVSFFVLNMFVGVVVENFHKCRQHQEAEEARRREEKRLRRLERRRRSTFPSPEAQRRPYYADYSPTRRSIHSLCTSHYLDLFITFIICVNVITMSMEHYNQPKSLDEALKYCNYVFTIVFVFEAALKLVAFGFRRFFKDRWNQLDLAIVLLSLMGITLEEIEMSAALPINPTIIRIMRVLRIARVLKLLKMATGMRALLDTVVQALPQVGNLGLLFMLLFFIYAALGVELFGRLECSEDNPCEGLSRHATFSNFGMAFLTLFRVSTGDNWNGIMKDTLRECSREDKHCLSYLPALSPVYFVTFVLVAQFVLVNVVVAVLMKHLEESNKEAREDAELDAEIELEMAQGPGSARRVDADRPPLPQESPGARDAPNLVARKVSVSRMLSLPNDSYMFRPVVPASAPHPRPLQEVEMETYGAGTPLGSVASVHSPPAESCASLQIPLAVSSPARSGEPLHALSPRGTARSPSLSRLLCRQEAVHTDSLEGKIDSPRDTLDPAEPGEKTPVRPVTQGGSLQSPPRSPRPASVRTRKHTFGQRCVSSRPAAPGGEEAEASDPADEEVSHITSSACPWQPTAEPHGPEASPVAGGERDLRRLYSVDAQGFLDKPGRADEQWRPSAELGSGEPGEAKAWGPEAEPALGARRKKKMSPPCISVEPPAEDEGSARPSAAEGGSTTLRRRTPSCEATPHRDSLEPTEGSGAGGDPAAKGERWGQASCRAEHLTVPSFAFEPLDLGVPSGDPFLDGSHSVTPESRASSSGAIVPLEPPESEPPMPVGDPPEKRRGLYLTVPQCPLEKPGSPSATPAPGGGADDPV

Hexokinase = Hexokinase (Trypanosoma brucei, UniProt Q38C41); experiment: Confirmation assay for inhibitors of Trypanosoma brucei hexokinase 1-Analogue-first series. [Related pubchem assays (depositor defined):AID1430, AID1632, AID2516, AID2560, AID2579, AID2600, AID449725, AID492951]; type: functional
Sequence of Hexokinase (Q38C41 whole entry): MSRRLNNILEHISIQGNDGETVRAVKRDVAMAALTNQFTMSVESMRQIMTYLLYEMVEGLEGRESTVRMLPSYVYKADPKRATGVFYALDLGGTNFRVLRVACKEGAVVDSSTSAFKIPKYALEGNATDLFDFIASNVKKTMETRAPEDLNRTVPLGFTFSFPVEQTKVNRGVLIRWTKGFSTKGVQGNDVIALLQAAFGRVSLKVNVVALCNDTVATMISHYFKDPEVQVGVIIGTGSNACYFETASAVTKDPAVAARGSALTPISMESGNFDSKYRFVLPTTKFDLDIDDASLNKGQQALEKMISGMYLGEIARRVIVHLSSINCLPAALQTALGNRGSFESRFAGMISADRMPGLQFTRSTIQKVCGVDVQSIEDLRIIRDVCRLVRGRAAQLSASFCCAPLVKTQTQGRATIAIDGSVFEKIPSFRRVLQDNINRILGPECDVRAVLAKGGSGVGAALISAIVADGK

[7] = molecular target: T1, Short transient receptor potential channel 4; experiment: calcium entry via TRPC4 opening agents – cell-based, HEK293 TRPC4/mu-opioid, Fluo-4 calcium, dose response (AID 434937); type: functional

COc1ccc(Cl)cc1C(=O)NCCN(C)C
EC50 [1]: 0.67 µM (active)

Clc1ccc(C2=CC(c3ccco3)n3ncnc3N2)cc1 (stereo unspecified)
AC50 (ORF 73): 171 µM (active)
EC50 [2]: 3.36 µM (active)
EC50 [3]: 24.7 µM (inconclusive)
EC50 [4]: 8.29 µM (active)

CCN(CC)C(=O)c1ccc(C(=O)c2c(C)cc(C)cc2C)cc1
EC50 (Hexokinase HKDC1): > 80 µM (inactive)

COc1ccc(/C=C/C(=O)NC(=S)Nc2ccc(C(=O)O)cc2)cc1
EC50 (Troponin, cardiac muscle): > 71.5 µM (inactive)
IC50 [5]: > 50 µM (not active)
IC50 (Aminopeptidase N): 53 µM (active)

CC(Oc1ccccc1)C(=O)Nc1nnc(-c2ccc3c(c2)OCCO3)o1 (stereo unspecified)
EC50 [6]: 10 µM (active)

O=C(COc1ccc(F)cc1Cl)Nc1nnc(-c2ccc(F)c(F)c2)o1
EC50 [6]: 1.1 µM (active)

COc1ccccc1NS(=O)(=O)c1cc([N+](=O)[O-])ccc1N/N=C/c1c(C)[nH]c2ccccc12
EC50 (Troponin, cardiac muscle): 2.57 µM (active)

O=C(c1ccccc1)n1sc2ccccc2c1=O
IC50 (Hexokinase): > 25 µM (inactive)

CCOC(=O)c1c(NC(=O)COC(=O)Cc2c[nH]c3ccccc23)sc(C(=O)N(C)C)c1C
EC50 [7]: 5.96 µM (active)
EC50 [1]: 0.42 µM (active)

Cc1ccccc1NC(=O)Cn1sc2ccccc2c1=O
IC50 (Hexokinase): 8.52 µM (active)
